The values that follow come from paper PMC4457528, “Identification of Novel Small Molecule Inhibitors of Oncogenic RET Kinase” (PLoS ONE, 2015).

Assay in all cases: KinomeScan kinase panel, single concentration 10 µM
Type in all cases: binding

Assay [1] concerns the target T1, KinomeScan kinase panel (Homo sapiens, UniProt Q96PY6).
T1 construct: purchased DiscoveRx (KinomeScan)
T1 sequence (Q96PY6 1-1258): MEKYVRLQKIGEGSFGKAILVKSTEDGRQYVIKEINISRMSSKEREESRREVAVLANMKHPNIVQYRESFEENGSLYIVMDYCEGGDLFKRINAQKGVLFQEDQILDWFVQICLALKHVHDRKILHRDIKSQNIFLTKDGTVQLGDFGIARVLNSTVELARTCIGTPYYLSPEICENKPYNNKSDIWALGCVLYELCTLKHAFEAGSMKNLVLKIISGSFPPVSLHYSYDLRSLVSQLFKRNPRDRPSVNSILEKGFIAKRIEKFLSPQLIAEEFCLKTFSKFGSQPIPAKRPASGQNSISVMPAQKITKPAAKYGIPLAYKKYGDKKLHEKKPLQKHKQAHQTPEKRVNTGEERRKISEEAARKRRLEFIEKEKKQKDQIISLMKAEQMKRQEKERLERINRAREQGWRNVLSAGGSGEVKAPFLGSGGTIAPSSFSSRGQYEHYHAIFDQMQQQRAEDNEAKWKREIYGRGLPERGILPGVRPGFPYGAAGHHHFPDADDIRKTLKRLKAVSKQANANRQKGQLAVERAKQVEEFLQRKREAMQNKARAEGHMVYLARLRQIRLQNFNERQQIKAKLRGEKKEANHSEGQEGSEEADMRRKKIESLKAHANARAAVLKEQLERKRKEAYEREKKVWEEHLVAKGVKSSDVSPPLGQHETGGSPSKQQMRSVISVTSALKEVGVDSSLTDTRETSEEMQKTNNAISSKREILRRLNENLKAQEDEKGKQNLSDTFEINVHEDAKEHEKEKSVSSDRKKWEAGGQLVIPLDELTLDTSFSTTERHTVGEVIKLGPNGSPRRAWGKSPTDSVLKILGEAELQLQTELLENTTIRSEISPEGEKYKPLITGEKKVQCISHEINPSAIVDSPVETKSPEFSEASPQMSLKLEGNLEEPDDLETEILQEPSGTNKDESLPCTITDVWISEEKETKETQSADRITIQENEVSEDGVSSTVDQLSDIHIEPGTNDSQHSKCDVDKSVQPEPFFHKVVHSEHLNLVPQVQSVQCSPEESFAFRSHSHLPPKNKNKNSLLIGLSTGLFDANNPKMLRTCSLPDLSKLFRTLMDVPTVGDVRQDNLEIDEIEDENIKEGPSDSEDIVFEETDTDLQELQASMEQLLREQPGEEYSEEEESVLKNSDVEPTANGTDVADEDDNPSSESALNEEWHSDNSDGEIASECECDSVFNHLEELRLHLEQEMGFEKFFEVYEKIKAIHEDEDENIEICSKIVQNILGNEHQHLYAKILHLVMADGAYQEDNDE
The note with it: NEK1, 10 µM; read-out: score (%).

Assay [2] deals with T2, KinomeScan kinase panel (Homo sapiens, UniProt O00506).
T2 construct: purchased DiscoveRx (KinomeScan)
The settings on record: kinase YSK1; 10 µM; read-out: score (%).

Assay [3] has as its target T3, KinomeScan kinase panel (Homo sapiens, UniProt P45984).
T3 construct: purchased DiscoveRx (KinomeScan)
The settings on record: JNK2, 10 µM.

The target of assay [4] is T4, KinomeScan kinase panel (Homo sapiens, UniProt Q86YV6).
T4 construct: purchased DiscoveRx (KinomeScan)
T4 sequence (Q86YV6 1-388): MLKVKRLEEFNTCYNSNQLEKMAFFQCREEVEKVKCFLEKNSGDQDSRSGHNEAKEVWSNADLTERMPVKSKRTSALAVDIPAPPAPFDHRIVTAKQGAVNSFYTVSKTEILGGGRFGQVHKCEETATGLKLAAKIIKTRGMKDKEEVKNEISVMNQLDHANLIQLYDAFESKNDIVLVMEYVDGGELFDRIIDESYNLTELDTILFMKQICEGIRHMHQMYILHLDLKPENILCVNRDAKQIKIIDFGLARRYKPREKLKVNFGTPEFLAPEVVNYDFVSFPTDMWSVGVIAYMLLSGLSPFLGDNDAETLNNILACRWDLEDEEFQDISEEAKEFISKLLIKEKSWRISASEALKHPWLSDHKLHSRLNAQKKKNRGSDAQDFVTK
The settings on record: read-out: score (%).

The target of assay [5] is T5, KinomeScan kinase panel (Homo sapiens, UniProt P42338).
T5 construct: purchased DiscoveRx (KinomeScan)
T5 sequence (P42338 whole entry): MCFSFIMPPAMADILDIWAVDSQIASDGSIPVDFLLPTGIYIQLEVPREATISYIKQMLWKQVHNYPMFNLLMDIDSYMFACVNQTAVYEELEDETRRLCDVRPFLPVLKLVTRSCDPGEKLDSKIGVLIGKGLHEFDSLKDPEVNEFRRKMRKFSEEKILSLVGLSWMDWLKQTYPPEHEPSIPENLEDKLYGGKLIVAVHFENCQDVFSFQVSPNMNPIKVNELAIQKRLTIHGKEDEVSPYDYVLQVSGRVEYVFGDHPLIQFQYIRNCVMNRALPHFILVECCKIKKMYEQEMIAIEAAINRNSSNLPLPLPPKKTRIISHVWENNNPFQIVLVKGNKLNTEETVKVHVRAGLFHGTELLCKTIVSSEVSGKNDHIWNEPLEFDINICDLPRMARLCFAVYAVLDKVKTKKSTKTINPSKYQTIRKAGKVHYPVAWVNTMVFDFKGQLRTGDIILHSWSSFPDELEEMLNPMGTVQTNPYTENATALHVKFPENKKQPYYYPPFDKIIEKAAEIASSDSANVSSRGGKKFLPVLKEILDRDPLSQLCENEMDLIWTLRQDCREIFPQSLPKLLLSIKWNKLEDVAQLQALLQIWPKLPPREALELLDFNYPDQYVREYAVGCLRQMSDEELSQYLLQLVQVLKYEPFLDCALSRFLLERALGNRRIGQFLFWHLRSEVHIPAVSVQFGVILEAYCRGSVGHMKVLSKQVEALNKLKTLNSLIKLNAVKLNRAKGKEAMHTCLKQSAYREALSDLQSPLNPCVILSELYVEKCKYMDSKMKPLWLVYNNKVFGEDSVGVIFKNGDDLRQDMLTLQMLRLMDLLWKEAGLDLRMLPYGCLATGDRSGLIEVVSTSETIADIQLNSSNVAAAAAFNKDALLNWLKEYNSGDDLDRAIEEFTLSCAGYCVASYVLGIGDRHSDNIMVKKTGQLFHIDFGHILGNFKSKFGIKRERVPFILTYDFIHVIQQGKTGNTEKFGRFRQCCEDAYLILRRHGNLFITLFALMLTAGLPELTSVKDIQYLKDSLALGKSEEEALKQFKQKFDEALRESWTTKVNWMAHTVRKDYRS
The note with it: PIK3CB, 10 µM; read-out: score (%).

Assay [6] has as its target T6, KinomeScan kinase panel (Homo sapiens, UniProt Q9HC98).
T6 construct: purchased DiscoveRx (KinomeScan)
The settings on record: NEK6, 10 µM; read-out: score (%).

In assay [7] the target is T7, KinomeScan kinase panel (Homo sapiens, UniProt P00519, F317I).
T7 construct: purchased DiscoveRx (KinomeScan)
T7 sequence (P00519 whole entry F317I): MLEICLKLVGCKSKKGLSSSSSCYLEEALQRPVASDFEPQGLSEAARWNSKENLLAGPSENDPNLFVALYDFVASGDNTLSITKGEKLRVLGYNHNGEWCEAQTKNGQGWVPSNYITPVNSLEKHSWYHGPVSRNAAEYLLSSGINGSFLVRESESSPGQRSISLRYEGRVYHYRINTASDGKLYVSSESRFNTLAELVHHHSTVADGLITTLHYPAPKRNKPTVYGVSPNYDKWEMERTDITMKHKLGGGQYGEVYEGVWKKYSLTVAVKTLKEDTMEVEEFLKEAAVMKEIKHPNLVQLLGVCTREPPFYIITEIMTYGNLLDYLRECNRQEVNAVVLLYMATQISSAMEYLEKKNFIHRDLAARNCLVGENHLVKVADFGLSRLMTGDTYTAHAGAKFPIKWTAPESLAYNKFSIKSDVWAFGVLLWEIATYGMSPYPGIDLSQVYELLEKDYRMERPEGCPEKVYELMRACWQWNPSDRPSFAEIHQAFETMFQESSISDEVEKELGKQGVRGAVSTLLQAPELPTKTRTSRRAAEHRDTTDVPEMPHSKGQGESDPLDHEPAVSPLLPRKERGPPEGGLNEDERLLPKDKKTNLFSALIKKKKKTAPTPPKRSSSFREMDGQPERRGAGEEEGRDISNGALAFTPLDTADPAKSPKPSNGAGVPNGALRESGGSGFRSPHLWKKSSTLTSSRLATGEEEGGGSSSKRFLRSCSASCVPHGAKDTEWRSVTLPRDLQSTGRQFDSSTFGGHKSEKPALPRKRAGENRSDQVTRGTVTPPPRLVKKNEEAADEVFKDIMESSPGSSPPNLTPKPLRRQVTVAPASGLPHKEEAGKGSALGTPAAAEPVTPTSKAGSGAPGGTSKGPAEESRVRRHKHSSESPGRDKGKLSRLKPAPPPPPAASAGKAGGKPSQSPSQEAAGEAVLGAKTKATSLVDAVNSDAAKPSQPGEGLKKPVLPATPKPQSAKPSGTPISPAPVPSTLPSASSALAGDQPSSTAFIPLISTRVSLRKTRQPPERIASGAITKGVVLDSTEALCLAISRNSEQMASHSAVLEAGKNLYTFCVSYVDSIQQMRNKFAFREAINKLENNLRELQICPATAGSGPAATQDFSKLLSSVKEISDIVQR
The settings on record: 10 µM, read-out: score (%).

For assay [8], the target named is T8, KinomeScan kinase panel (Homo sapiens, UniProt P36896).
T8 construct: purchased DiscoveRx (KinomeScan)
T8 sequence (P36896 24-505): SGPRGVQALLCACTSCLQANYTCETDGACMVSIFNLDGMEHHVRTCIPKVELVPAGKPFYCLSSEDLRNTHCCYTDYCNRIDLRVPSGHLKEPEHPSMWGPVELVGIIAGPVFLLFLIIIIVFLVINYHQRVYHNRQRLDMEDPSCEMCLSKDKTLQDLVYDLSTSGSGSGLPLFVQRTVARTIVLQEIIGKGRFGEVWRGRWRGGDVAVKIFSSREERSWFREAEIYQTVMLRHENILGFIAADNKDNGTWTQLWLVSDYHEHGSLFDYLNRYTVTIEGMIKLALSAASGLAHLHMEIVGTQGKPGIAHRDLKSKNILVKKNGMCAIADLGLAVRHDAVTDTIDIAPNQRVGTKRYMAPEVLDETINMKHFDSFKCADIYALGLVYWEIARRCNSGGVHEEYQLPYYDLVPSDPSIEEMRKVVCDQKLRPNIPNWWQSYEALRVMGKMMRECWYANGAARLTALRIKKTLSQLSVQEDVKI
The note with it: ACVR1B, 10 µM; read-out: score (%).

In assay [9] the target is T9, KinomeScan kinase panel (Homo sapiens, UniProt P42684).
T9 construct: purchased DiscoveRx (KinomeScan)
T9 sequence (P42684 whole entry): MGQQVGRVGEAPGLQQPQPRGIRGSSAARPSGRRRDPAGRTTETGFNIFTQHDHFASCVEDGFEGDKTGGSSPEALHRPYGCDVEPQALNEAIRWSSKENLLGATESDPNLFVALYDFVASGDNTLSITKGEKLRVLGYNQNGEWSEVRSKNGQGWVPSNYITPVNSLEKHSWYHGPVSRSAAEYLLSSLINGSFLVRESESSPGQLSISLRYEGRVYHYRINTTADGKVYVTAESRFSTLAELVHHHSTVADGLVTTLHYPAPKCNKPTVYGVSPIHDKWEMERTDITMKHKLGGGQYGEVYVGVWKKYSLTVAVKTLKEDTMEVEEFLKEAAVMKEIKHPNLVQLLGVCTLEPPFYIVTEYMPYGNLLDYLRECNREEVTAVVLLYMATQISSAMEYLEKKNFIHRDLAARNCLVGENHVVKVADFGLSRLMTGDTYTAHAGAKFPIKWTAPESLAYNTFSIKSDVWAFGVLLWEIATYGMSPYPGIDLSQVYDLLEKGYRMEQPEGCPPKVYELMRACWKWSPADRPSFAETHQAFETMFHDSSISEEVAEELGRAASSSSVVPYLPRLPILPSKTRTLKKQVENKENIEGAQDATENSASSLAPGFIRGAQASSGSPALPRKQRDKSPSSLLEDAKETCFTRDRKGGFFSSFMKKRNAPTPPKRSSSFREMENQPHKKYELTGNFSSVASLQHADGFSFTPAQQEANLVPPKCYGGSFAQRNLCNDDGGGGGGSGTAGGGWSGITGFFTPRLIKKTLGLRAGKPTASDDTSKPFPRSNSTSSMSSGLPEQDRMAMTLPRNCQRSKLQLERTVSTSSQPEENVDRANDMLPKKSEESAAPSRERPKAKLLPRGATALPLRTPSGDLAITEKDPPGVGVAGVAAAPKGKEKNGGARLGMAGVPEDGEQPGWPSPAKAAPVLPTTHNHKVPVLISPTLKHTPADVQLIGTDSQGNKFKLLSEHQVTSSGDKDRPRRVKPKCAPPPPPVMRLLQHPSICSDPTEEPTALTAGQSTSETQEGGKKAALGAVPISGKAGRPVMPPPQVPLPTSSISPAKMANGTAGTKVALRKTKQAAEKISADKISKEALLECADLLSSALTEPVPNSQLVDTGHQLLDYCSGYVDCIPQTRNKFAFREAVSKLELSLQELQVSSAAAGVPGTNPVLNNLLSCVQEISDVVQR
The note with it: ABL2, 10 µM; read-out: score (%).

The target of assay [10] is T10, KinomeScan kinase panel (Homo sapiens, UniProt P08581).
T10 construct: purchased DiscoveRx (KinomeScan)
The settings on record: MET, 10 µM.

For assay [11], the target named is T11, KinomeScan kinase panel (Homo sapiens, UniProt P07333).
T11 construct: purchased DiscoveRx (KinomeScan)
T11 sequence (P07333 20-972): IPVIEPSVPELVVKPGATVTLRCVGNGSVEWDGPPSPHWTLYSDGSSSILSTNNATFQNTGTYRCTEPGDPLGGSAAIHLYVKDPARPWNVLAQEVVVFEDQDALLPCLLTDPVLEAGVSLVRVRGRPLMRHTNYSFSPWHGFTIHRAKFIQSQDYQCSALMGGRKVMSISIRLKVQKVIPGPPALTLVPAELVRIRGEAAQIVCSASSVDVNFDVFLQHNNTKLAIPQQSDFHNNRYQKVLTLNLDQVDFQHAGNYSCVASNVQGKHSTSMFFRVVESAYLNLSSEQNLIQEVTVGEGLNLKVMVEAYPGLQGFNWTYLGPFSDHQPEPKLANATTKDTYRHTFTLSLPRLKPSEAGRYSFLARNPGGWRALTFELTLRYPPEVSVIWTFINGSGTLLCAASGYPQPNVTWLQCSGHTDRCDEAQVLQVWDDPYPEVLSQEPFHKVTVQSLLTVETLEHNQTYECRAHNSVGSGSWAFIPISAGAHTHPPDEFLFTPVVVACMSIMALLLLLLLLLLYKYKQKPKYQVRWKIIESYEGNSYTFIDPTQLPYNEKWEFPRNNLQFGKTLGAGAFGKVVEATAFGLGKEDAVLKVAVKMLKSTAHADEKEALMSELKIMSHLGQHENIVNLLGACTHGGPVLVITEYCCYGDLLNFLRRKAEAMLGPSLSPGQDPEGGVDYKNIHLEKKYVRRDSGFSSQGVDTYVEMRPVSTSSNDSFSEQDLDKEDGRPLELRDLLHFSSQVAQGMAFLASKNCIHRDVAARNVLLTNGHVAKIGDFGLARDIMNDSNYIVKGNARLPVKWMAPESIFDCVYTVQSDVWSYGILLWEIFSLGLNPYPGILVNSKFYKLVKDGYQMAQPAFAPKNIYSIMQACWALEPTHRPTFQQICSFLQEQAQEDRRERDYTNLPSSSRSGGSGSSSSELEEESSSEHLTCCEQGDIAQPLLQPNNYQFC
The note with it: CSF1R, 10 µM; read-out: score (%).

Assay [12] deals with T12, KinomeScan kinase panel (Homo sapiens, UniProt P08069).
T12 construct: purchased DiscoveRx (KinomeScan)
The settings on record: IGF1R, 10 µM; read-out: score (%).

The structures appear in SMILES notation. Like-named read-outs stand apart in the source and are kept apart here.

T3 sequence (P45984 whole entry): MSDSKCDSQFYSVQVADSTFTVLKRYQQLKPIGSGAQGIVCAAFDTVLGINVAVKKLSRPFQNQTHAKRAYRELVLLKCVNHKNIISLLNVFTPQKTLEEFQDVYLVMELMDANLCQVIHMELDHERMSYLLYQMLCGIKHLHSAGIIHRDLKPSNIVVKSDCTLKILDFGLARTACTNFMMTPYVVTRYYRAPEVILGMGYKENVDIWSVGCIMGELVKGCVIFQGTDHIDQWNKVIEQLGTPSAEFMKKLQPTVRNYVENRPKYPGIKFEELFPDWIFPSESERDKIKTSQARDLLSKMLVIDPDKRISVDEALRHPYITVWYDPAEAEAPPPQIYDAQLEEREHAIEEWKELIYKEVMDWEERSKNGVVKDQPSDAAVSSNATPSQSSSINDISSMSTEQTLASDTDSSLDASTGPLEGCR
T6 sequence (Q9HC98 whole entry): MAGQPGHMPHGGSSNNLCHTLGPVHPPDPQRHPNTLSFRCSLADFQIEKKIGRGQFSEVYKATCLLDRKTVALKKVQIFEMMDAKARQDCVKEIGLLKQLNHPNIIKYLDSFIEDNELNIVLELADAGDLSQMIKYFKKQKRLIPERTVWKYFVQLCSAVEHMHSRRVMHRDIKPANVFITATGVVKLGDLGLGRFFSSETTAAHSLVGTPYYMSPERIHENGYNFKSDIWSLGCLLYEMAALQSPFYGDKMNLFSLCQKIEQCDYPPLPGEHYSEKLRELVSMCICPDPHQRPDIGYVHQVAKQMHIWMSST

Regarding `CCN1CCN(Cc2ccc(NC(=O)c3ccc(C)c(NC(=O)c4cncc(-c5cccs5)c4)c3)cc2C(F)(F)F)CC1` [ALW-II-41-27], the remaining binding at 10 µM at KinomeScan kinase panel [1] was above 30%; at KinomeScan kinase panel [2], above 30%; on KinomeScan kinase panel [4] (kinase SgK085, 10 µM), above 30%; at KinomeScan kinase panel [5] it was above 30%; at KinomeScan kinase panel [6], above 30%; at KinomeScan kinase panel [7] (ABL1(F317I)), 0.2%. Also, the remaining binding at 10 µM at KinomeScan kinase panel [8] was above 30%; at KinomeScan kinase panel [9], 0.1%; on KinomeScan kinase panel [11], 0%; on KinomeScan kinase panel [12], above 30%. For the same compound, the “score (%)” value is 0.25% at KinomeScan kinase panel [3] and “nb (Hits values higher than 30% were considered negative (no binding: nb))” on KinomeScan kinase panel [10].
As for `CCN1CCN(Cc2ccc(NC(=O)c3ccc(C)c(/C=C/c4cnc5[nH]ccc5c4Cl)c3)cc2C(F)(F)F)CC1` [HG-6-63-01, (E)-3-(2-(4-chloro-1H-pyrrolo[2,3-b]pyridin-5-yl)vinyl)-N-(4-((4-ethylpiperazin-1-yl)methyl)-3-(trifluoromethyl)phenyl)-4-methylbenzamide], the remaining binding at 10 µM on KinomeScan kinase panel [1] is above 30%; on KinomeScan kinase panel [2], above 30%; at KinomeScan kinase panel [4] (SgK085, 10 µM), 8.5%; at KinomeScan kinase panel [5], above 30%; on KinomeScan kinase panel [6] it was above 30%; on KinomeScan kinase panel [7] (ABL1(F317I)), 0.05%. The remaining binding at 10 µM on KinomeScan kinase panel [8] was above 30%; on KinomeScan kinase panel [9], 0.1%; at KinomeScan kinase panel [11], 0%; on KinomeScan kinase panel [12], above 30%. Moreover, the “score (%)” value at KinomeScan kinase panel [3] was 1.1%; at KinomeScan kinase panel [10] it was “nb (Hits values higher than 30% were considered negative (no binding: nb))”.
As for `CCN1CCN(Cc2ccc(NC(=O)c3ccc(C)c(C#Cc4cccnc4)c3)cc2C(F)(F)F)CC1` [XMD15-44], the remaining binding at 10 µM on KinomeScan kinase panel [1] is above 30%; at KinomeScan kinase panel [2], 16%; at KinomeScan kinase panel [4] (MYLK4, 10 µM), above 30%; on KinomeScan kinase panel [5] it was 100%; on KinomeScan kinase panel [6], 90%; at KinomeScan kinase panel [7] (ABL1(F317I)-nonphosphorylated), 8.8%. Further, the remaining binding at 10 µM was 4% on KinomeScan kinase panel [7] (ABL1(F317I)-phosphorylated); above 30% at KinomeScan kinase panel [8]; 0.05% at KinomeScan kinase panel [9]; 0% at KinomeScan kinase panel [11]; above 30% on KinomeScan kinase panel [12]. Also, the “score (%)” value is on record as 0% at KinomeScan kinase panel [3] and “nb (Hits values higher than 30% were considered negative (no binding: nb))” at KinomeScan kinase panel [10].
